Results: patent publication US9309410B2, “Colorant compounds” (Xerox Corporation, priority 2013, dated 2016)

Assay: Solubility testing in polyethylene wax (POLYWAX 655)
Format: physicochemical
Settings: 1 g Solvent Black 3 or 2 g distearyl derivative in 50 g POLYWAX 655; 120° C. oil bath, stirred 3 h, then 1 h without stirring
Source text: Solvent Black 3 (NEPTUN BLACK X60, BASF), of the formula
[drawing 36] molecular weight 456, and the distearyl derivative, a compound as disclosed herein, of the formula
[drawing 37] molecular weight 892, were compared for solubility in polyethylene wax, a predominant component in phase change inks. 1 g of the Solvent Black 3 and 2 g of the distearyl derivative (because its molecular weight was about twice that of Solvent Black 3) were each dissolved in 50 g portions of POLYWAX 655 (Baker Petrolite) in 100 mL beakers equipped with magnetic stir bars. The solutions were placed in 120° C. oil baths and allowed to stir for 3 h, followed by cessation of stirring for 1 h, after which the solutions were poured into aluminum tins.

Compound	solubility in polyethylene wax (solids on the bottom of the beaker)
CC1(C)Nc2cccc3c(/N=N/c4ccc(/N=N/c5ccccc5)c5ccccc45)ccc(c23)N1 [Solvent Black 3]	a substantial amount of the Solvent Black 3 appeared on the bottom of its beaker
CCCCCCCCCCCCCCCCCC1(CCCCCCCCCCCCCCCCC)Nc2cccc3c(/N=N/c4ccc(/N=N/c5ccccc5)c5ccccc45)ccc(c23)N1 [distearyl derivative]	almost no solids appeared on the bottom of the beaker
